From patent US10077289B2, “Cyclosporins modified on the MeBmt sidechain by heterocyclic rings” (priority 2015, dated 2018)
In brackets after ≈: the same amount, converted by molar mass. Where two headings read alike, the source gives them in different places.

Legend:
[1] = molecular target: Human recombinant cyclophilin A (Cyp A) (Homo sapiens (Human), UniProt P62937); test: Protease-free PPIase assay
[2] = molecular target: calcineurin/cyclophilin A (Homo sapiens (Human), UniProt P62937+P63098+Q08209); test: Calcineurin Phosphatase (CaN) Assay (+CypA); format: biochemical; details: in the presence of Cyp A, 1:1 complex with inhibitor; read-out: Calcineurin Phosphatase (CaN) Assay (+CypA) IC50
[3] = Water Solubility Assay (measured in pH 7.8 buffer); format: physicochemical; details: 25 °C, pH 7.8, aqueous buffer, kinetic from dmso stock

| Ki [1] | IC50 [2] | solubility at 18 h [3] | Ki ([1]; read-out: Protease-free PPIase Assay Ki, human recombinant Cyp A, 10 °C) | Compound |
| --- | --- | --- | --- | --- |
| 12.2 nM | > 10000 nM | > 100 µM | – | CC[C@H]1NC(=O)[C@@H]([C@H](O)[C@H](C)CCCc2nccn2C)N(C)C(=O)[C@@H](C(C)C)N(C)C(=O)[C@@H](CC(C)C)N(C)C(=O)[C@@H](CC(C)C)N(C)C(=O)[C@H](C)NC(=O)[C@@H](C)NC(=O)[C@@H](CC(C)C)N(C)C(=O)[C@@H](C(C)C)NC(=O)[C@H](CC(C)C)N(C)C(=O)[C@@H](C)N(C)C1=O [Compound 26, [(2S,3R,4R)-3-Hydroxy-7-(1-methyl-1H-imidazol-2-yl)-4-methyl-2-(methylamino)heptanoic acid]^1 [(R)-methyl-Sar]^3 cyclosporin A] |
| 6.8 nM | 1110 nM | > 100 µM | – | CC[C@H]1NC(=O)[C@@H]([C@H](O)[C@H](C)CCCc2cnn(C)c2)N(C)C(=O)[C@@H](C(C)C)N(C)C(=O)[C@@H](CC(C)C)N(C)C(=O)[C@@H](CC(C)C)N(C)C(=O)[C@H](C)NC(=O)[C@@H](C)NC(=O)[C@@H](CC(C)C)N(C)C(=O)[C@@H](C(C)C)NC(=O)[C@H](CC(C)C)N(C)C(=O)[C@@H](C)N(C)C1=O [Compound 27, [(2S,3R,4R)-3-Hydroxy-4-methyl-2-(methylamino)-7-(1-methylpyrazol-4-yl)-heptanoic acid]^1 [(R)-methyl-Sar]^3 cyclosporin A] |
| 3.9 nM | > 10000 nM | 50 to 75 µM (≈ 64.8 to 97.2 µg/mL) | – | CC[C@H]1NC(=O)[C@@H]([C@H](O)[C@H](C)CCCCc2ccccn2)N(C)C(=O)[C@@H](C(C)C)N(C)C(=O)[C@@H](CC(C)C)N(C)C(=O)[C@@H](CC(C)C)N(C)C(=O)[C@H](C)NC(=O)[C@@H](C)NC(=O)[C@@H](CC(C)C)N(C)C(=O)[C@@H](C(C)C)NC(=O)[C@H](CC(C)C)N(C)C(=O)[C@@H](C)N(C)C1=O [Compound 28, [(2S,3R,4R)-3-Hydroxy-4-methyl-2-(methylamino)-8-(pyridin-2-yl)-octanoic acid]^1 [(R)-methyl-Sar]^3 cyclosporin A] |
| – | 2650 nM | 50 to 75 µM (≈ 63.4 to 95.1 µg/mL) | 11 nM | CC[C@H]1NC(=O)[C@@H]([C@H](O)[C@H](C)CCCc2ccccn2)N(C)C(=O)[C@@H](C(C)C)N(C)C(=O)[C@@H](CC(C)C)N(C)C(=O)[C@@H](CC(C)C)N(C)C(=O)[C@H](C)NC(=O)[C@@H](C)NC(=O)[C@@H](CC(C)C)N(C)C(=O)[C@@H](C(C)C)NC(=O)[C@H](CC(C)C)N(C)C(=O)CN(C)C1=O [Compound 29, [(2S,3R,4R)-3-Hydroxy-4-methyl-2-(methylamino)-7-(pyridine-2-yl)-heptanoic acid]^1 cyclosporin A] |
| 14 nM | 3150 nM | 50 to 75 µM (≈ 63.4 to 95.1 µg/mL) | – | CC[C@H]1NC(=O)[C@@H]([C@H](O)[C@H](C)CCCc2ccncc2)N(C)C(=O)[C@@H](C(C)C)N(C)C(=O)[C@@H](CC(C)C)N(C)C(=O)[C@@H](CC(C)C)N(C)C(=O)[C@H](C)NC(=O)[C@@H](C)NC(=O)[C@@H](CC(C)C)N(C)C(=O)[C@@H](C(C)C)NC(=O)[C@H](CC(C)C)N(C)C(=O)CN(C)C1=O [Compound 30, [(2S,3R,4R)-3-Hydroxy-4-methyl-2-(methylamino)-7-(pyridin-4-yl)-heptanoic acid]^1 cyclosporin A] |
| 9.5 nM | 3950 nM | 50 to 75 µM (≈ 63.4 to 95.1 µg/mL) | – | CC[C@H]1NC(=O)[C@@H]([C@H](O)[C@H](C)CCCc2cccnc2)N(C)C(=O)[C@@H](C(C)C)N(C)C(=O)[C@@H](CC(C)C)N(C)C(=O)[C@@H](CC(C)C)N(C)C(=O)[C@H](C)NC(=O)[C@@H](C)NC(=O)[C@@H](CC(C)C)N(C)C(=O)[C@@H](C(C)C)NC(=O)[C@H](CC(C)C)N(C)C(=O)CN(C)C1=O [Compound 31, [(2S,3R,4R)-3-Hydroxy-4-methyl-2-(methylamino)-7-(pyridin-3-yl)-heptanoic acid]^1 cyclosporin A] |
